Measured values: publication PMC2752665 (Nature chemical biology, 2009)

Columns and labels:
KSHV Pr dimer = KSHV Pr dimer (Human herpesvirus 8 type P, UniProt Q2HRB6, S204G); type: binding
p53-MDM2 = details: cited from earlier work
KSHV Pr [1] = target: T1, KSHV Pr (Human herpesvirus 8 type P, UniProt Q2HRB6, S204G); type: biochemical, human Kaposi's sarcoma-associated herpesvirus (KSHV); details: substitution from meta position to para or ortho
[2] = Dynamic light scattering for particle formation; type: physicochemical
KSHV Pr [3] = target: T1, KSHV Pr; assay: Inhibition kinetics; type: biochemical, human Kaposi's sarcoma-associated herpesvirus (KSHV)
wt KSHV Pr = wt KSHV Pr (Human herpesvirus 8 type P, UniProt Q2HRB6, S204G); type: binding; details: 23 μM 13C-Met wt KSHV Pr, 1 molar equivalence inhibitor (24 μM)
[4] = 1 -10 μM concentration range of DD2

Structure (SMILES): O=C(O)c1ccc(NC(=O)c2cccc(CC3CCCCC3)c2)c(Cc2ccccc2)c1 [Compound 1]
- results in size exclusion chromatography and HSQC experiments compared with DD2 (KSHV Pr dimer; data not shown): produced similar results
- inhibition of the interaction of p53-MDM2 (p53-MDM2): not found to inhibit

Structure (SMILES): O=C(O)c1ccc(NC(=O)c2ccc(CC3CCCCC3)cc2)c(Cc2ccccc2)c1 [Compound 4]
- effect of moving the cyclohexylmethyl side chain on inhibition (SAR) (KSHV Pr [1]): diminished inhibition

Structure (SMILES): O=C(O)c1ccc(NC(=O)c2cccc(CC3CCCCC3)n2)c(Cc2ccccc2)c1 [Compound 2]
- particle formation by dynamic light scattering [2]: did not show evidence of particle formation
- elution profile of KSHV Pr (dimerization state) (KSHV Pr dimer; 5 μM wt KSHV Pr pre-incubated with 30 μM compound): eluted predominantly as a monomer
- decrease in Vmax (KSHV Pr [3]; [4]): 3 fold
- increase in KM (KSHV Pr [3]; [4]): 2.5 fold
- type of inhibition (KSHV Pr [3]; Lineweaver–Burk analysis): mixed-type inhibitor
- M197-dimer peak in 1H-13C HSQC (wt KSHV Pr): broadens beyond detection

Structure (SMILES): O=C(O)c1ccc(NC(=O)c2ccccc2CC2CCCCC2)c(Cc2ccccc2)c1 [Compound 5]
- effect of moving the cyclohexylmethyl side chain on inhibition (SAR) (KSHV Pr [1]): diminished inhibition
